Data on 50 compounds can be found in patent publication US8518980B2, “Treatment of Duchenne muscular dystrophy” (Summit Corporation PLC, priority 2006, dated 2013).

Where a name gives a salt, the structure may show the parent alone.

In the first test the test system is Utrophin A promoter linked to a luciferase reporter gene (H2K/mdx/Utro A reporter cell line). The experiment in a line: Luciferase reporter assay (murine H2K cells). The note with it: Mus musculus, H2K mdx. (In a reporter assay the amount or activity of a reporter protein is the signal.)
For the compound `Cc1nn(-c2nc3ccccc3[nH]2)c(N)c1-c1ccccc1` [Example 659, 1-(1H-benzo[d]imidazol-2-yl)-3-methyl-4-phenyl-1H-pyrazol-5-amine], the activity at 10 µM was 301 to 400%.

As for `Cc1nc2ccc(NC(=O)Nc3ccccc3)cc2o1` [Example 466, 1-(2-methylbenzo[d]oxazol-6-yl)-3-phenylurea], the activity at 10 µM is below 200%.

Consider `Nc1ccc2[nH]c(-c3ccco3)nc2c1` [Example 510, 2-(furan-2-yl)-1H-benzo[d]imidazol-5-amine dihydrochloride], for which the activity at 10 µM was below 200%.

For the compound `CCOCCC(=O)Nc1ccc(-c2nc3ccc(C)cc3s2)cc1` [Example 660, 3-ethoxy-N-(4-(6-methylbenzo[d]thiazol-2-yl)phenyl)propanamide], the activity at 10 µM lay in the range of 301 to 400%.

In the case of `O=[N+]([O-])c1ccc2nc(-c3ccccc3)[nH]c2c1` [Example 604, 6-Nitro-2-phenyl-1H-benzo[d]imidazole], the activity at 10 µM was in the range of 301 to 400%.

Turning to `Cc1cc(-c2nc3ccccc3s2)ccc1[N+](=O)[O-]` [Example 599, 2-(3-Methyl-4-nitrophenyl)benzo[d]thiazole], the activity at 10 µM was above 401%.

On to `Cn1c(CNc2ccc(Cl)cc2)nc2ccccc21` [Example 666, 4-chloro-N-((1-methyl-1H-benzo[d]imidazol-2-yl)methyl)aniline], for which the activity at 10 µM lay within 201 to 300%.

`Cc1nc(Nc2nc3ccccc3o2)nc2c1CCC2` [Example 678, N-(4-methyl-6,7-dihydro-5H-cyclopenta[d]pyrimidin-2-yl)benzo[d]oxazol-2-amine]: the activity at 10 µM fell in the range of 201 to 300%.

On to `CC1=NN(c2nc3ccccc3s2)C(=O)/C1=C(/C)NC1CC1` [Example 546, (Z)-1-(benzo[d]thiazol-2-yl)-4-(1-(cyclopropylamino)ethylidene)-3-methyl-1H-pyrazol-5(4H)-one], for which the activity at 10 µM is below 200%.

For the compound `Cn1c(-c2ccc([N+](=O)[O-])cc2)nc2ccccc21` [Example 472, 1-methyl-2-(4-nitrophenyl)-1H-benzo[d]imidazole], the activity at 10 µM was below 200%.

As for `Cc1ccc(S(=O)(=O)Nc2ccc3[nH]c(-c4ccco4)nc3c2)cc1` [Example 536, N-(2-(furan-2-yl)-1H-benzo[d]imidazol-5-yl)-4-methylbenzenesulfonamide], the activity at 10 µM was below 200%.

Consider `Cc1ccc(-c2nc3cc(N)ccc3o2)cc1C` [Example 603, 2-(3,4-Dimethylphenyl)benzo[d]oxazol-5-amine], for which the activity at 10 µM lay in the range of 301 to 400%.

Take `O=C(CSc1nc[nH]n1)Nc1ccc(-c2nc3ccccc3s2)cc1` [Example 685, 2-(1H-1,2,4-triazol-3-ylthio)-N-(4-(benzo[d]thiazol-2-yl)phenyl)acetamide]: the activity at 10 µM was in the range of 201 to 300%.

In the case of `CCCCc1nc2cc(S(=O)(=O)CC)ccc2o1` [Example 570, 2-butyl-5-(ethylsulfonyl)benzo[d]oxazole], the activity at 10 µM was below 200%.

On to `Cc1ccc(-c2nc3ccccc3s2)cc1N` [Example 479, 5-(benzo[d]thiazol-2-yl)-2-methylaniline], for which the activity at 10 µM lay in the range of 201 to 300%.

`Cc1ccc2nc(-c3ccc(C)c(N)c3)oc2c1` [Example 635, 2-methyl-5-(6-methylbenzo[d]oxazol-2-yl)aniline]: the activity at 10 µM is 301 to 400%.

Regarding `CC(=O)Nc1ccc(-c2nc3cc(C)cc(C)c3o2)cc1` [Example 529, N-(4-(5,7-dimethylbenzo[d]oxazol-2-yl)phenyl)acetamide], the activity at 10 µM was in the range of 201 to 300%.

As to `Cc1ccc2nc(-c3ccc(N)cc3)sc2c1` [Example 664, 4-(6-methylbenzo[d]thiazol-2-yl)aniline], the activity at 10 µM was in the range of 201 to 300%.

For the compound `COc1ccc(-c2nc3ccccc3o2)cc1` [Example 583, 2-(4-Methoxyphenyl)benzo[d]oxazole], the activity at 10 µM lay within 301 to 400%.

`O=C(COc1ccc2c(c1)OCO2)Nc1nc2ccccc2s1` [Example 614, 2-(Benzo[d][1,3]dioxol-5-yloxy)-N-(benzo[d]thiazol-2-yl)acetamide]: the activity at 10 µM was below 200%.

With `Clc1ccc(OCc2nc3ccccc3[nH]2)c(Cl)c1` [Example 461, 2-((2,4-dichlorophenoxy)methyl)-1H-benzo[d]imidazole], the activity at 10 µM was in the range of 301 to 400%.

For `COc1ccc(-c2nc3cc(NC(C)=O)ccc3o2)cc1Cl` [Example 519, N-(2-(3-chloro-4-methoxyphenyl)benzo[d]oxazol-5-yl)acetamide], the activity at 10 µM was in the range of 201 to 300%.

For the compound `Nc1ccc(-c2nc3ccc(N)cc3o2)cc1` [Example 544, 2-(4-aminophenyl)benzo[d]oxazol-6-amine], the activity at 10 µM lay within 201 to 300%.

Take `c1ccc2nc(-c3nc4ccccc4s3)ccc2c1` [Example 639, 2-(quinolin-2-yl)benzo[d]thiazole]: the activity at 10 µM is 301 to 400%.

Take `Cc1ccc2nc(-c3ccc(C(F)(F)F)cc3)oc2c1` [Example 611, 6-Methyl-2-(4-(trifluoromethyl)phenyl)benzo[d]oxazole]: the activity at 10 µM lay within 301 to 400%.

As to `CCOc1ccc2nc(NC(=O)c3ccccc3)sc2c1` [Example 555, N-(6-ethoxybenzo[d]thiazol-2-yl)benzamide], the activity at 10 µM was below 200%.

Take `Cc1ccc2oc(-c3ccc([N+](=O)[O-])cc3)nc2c1` [Example 505, 5-methyl-2-(4-nitrophenyl)benzo[d]oxazole]: the activity at 10 µM lay in the range of 201 to 300%.

For the compound `Cc1ccc2nc(-c3ccc(NC(=O)C(C)C)cc3)oc2c1` [Example 564, N-(4-(6-methylbenzo[d]oxazol-2-yl)phenyl)isobutyramide], the activity at 10 µM was below 200%.

As to `Cc1cc2nc(-c3ccc(N)cc3O)oc2cc1C` [Example 610, 5-Amino-2-(5,6-dimethylbenzo[d]oxazol-2-yl)phenol], the activity at 10 µM is above 401%.

As to `Cn1c(-c2ccc(Cl)cc2)nc2ccccc21` [Example 541, 2-(4-chlorophenyl)-1-methyl-1H-benzo[d]imidazole], the activity at 10 µM lay in the range of 201 to 300%.

In the case of `Cc1ccc(-c2nc3cc(N)ccc3o2)cc1Cl` [Example 526, 2-(3-chloro-4-methylphenyl)benzo[d]oxazol-5-amine], the activity at 10 µM was 201 to 300%.

Regarding `Nc1c(C(=O)Nc2ccc(F)cc2)sc2nc3c(cc12)CCC3` [Example 628, 3-amino-N-(4-fluorophenyl)-6,7-dihydro-5H-cyclopenta[e]thieno[2,3-b]pyridine-2-carboxamide], the activity at 10 µM is above 401%.

Consider `Cc1ccc2[nH]c(-c3ccc(NC(=O)c4ccco4)cc3)nc2c1` [Example 580, N-(4-(5-Methyl-1H-benzo[d]imidazol-2-yl)phenyl)furan-2-carboxamide], for which the activity at 10 µM lay in the range of 301 to 400%.

In the case of `Nc1cc(-c2nc3ccccc3s2)ccc1Cl` [Example 592, 5-(Benzo[d]thiazol-2-yl)-2-chloroaniline], the activity at 10 µM is above 401%.

Turning to `Cc1ccc2sc(NC(=O)NC(=O)c3c(Cl)cccc3Cl)nc2c1` [Example 462, 2,6-dichloro-N-(5-methylbenzo[d]thiazol-2-ylcarbamoyl)benzamide], the activity at 10 µM is below 200%.

For the compound `Cc1ccc2oc(-c3ccc(Cl)c(N)c3)nc2c1` [Example 636, 2-chloro-5-(5-methylbenzo[d]oxazol-2-yl)aniline], the activity at 10 µM was in the range of 301 to 400%.

For `Cc1ccc2[nH]c(-c3ccc([N+](=O)[O-])cc3)nc2c1` [Example 605, 5-Methyl-2-(4-nitrophenyl)-1H-benzo[d]imidazole], the activity at 10 µM lay within 301 to 400%.

`COc1ccc(-c2nc3cc([N+](=O)[O-])ccc3[nH]2)cc1OC` [Example 520, 2-(3,4-dimethoxyphenyl)-5-nitro-1H-benzo[d]imidazole]: the activity at 10 µM is below 200%.

On to `CCc1ccc2oc(-c3ccc(C)c(N)c3)nc2c1` [Example 625, 5-(5-ethylbenzo[d]oxazol-2-yl)-2-methylaniline], for which the activity at 10 µM is above 401%.

Regarding `COc1cccc(-c2nc3ccccc3s2)c1` [Example 606, 2-(3-Methoxyphenyl)benzo[d]thiazole], the activity at 10 µM lay in the range of 301 to 400%.

On to `Cc1ccc2nc(-c3ccc(NC(=O)CSc4nnc[nH]4)cc3)sc2c1` [Example 654, 2-(4H-1,2,4-triazol-3-ylthio)-N-(4-(6-methylbenzo[d]thiazol-2-yl)phenyl)acetamide], for which the activity at 10 µM was 301 to 400%.

For `O=C(Nc1ccc(-c2nc3ccccc3[nH]2)cc1)c1ccc2c(c1)OCO2` [Example 540, N-(4-(1H-benzo[d]imidazol-2-yl)phenyl)benzo[d][1,3]dioxole-5-carboxamide], the activity at 10 µM is below 200%.

With `COc1ccc(-c2nc3cc(C)ccc3o2)cc1` [Example 675, 2-(4-methoxyphenyl)-5-methylbenzo[d]oxazole], the activity at 10 µM is 201 to 300%.

`Cc1cccc(NC(=O)c2sc3nc(C)cc(C)c3c2N)c1` [Example 650, 3-amino-4,6-dimethyl-N-m-tolylthieno[2,3-b]pyridine-2-carboxamide]: the activity at 10 µM lay within 301 to 400%.

Turning to `CC(=O)c1c(C)nc(Nc2nc3ccccc3o2)nc1C` [Example 681, 1-(2-(benzo[d]oxazol-2-ylamino)-4,6-dimethylpyrimidin-5-yl)ethanone], the activity at 10 µM was 201 to 300%.

In the case of `CNS(=O)(=O)c1ccc2nc(NC(=O)c3cccs3)sc2c1` [Example 687, N-(6-(N-methylsulfamoyl)benzo[d]thiazol-2-yl)thiophene-2-carboxamide], the activity at 10 µM fell in the range of 201 to 300%.

`Cc1ccc2nc(-c3ccc(NC(=O)c4ccccc4C(=O)O)cc3)sc2c1` [Example 545, 2-(4-(6-methylbenzo[d]thiazol-2-yl)phenylcarbamoyl)benzoic acid]: the activity at 10 µM was below 200%.

For `C(=C\c1nc2ccccc2[nH]1)/c1ccccc1` [Example 547, (E)-2-styryl-1H-benzo[d]imidazole], the activity at 10 µM was 301 to 400%.

For the compound `Cc1nc2ccc(NC(=O)NC(=O)c3ccccc3Cl)cc2o1` [Example 468, 2-chloro-N-(2-methylbenzo[d]oxazol-6-ylcarbamoyl)benzamide], the activity at 10 µM is below 200%.

The test is the same for the next values; noted with them: Table 1; luciferase level relative to control; final concentration of 10 μM.
For `CCN(CC)S(=O)(=O)c1ccc2oc(-c3ccc(Cl)cc3)nc2c1` [Example 439, 2-(4′-chlorophenyl)-5-(N,N-diethylsulfonamidyl)-benzoxazole], the Activity result is recorded as “+ (Up to 200% relative to control)”.
